IC50 data for 15 compounds are collected here from patent US12187742B2 (XRAD Therapeutics, Inc., priority 2018, dated 2025).

Each structure is given as a SMILES string. Counter-ions that a name gives are not always drawn. Some results are limits rather than exact numbers.

In one test the target is DNA-PK (Homo sapiens (Human), UniProt P78527). The test can be described thus: DNA-PK Enzyme-Linked Immunosorbent Assay (phosphorylation of GST-p53 (1-101) peptide). The following applies: ELISA, 20 μM ATP. The format is biochemical. A digest of the protocol: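 ELISA with plate-bound GST-p53 (1-101) phosphorylated by DNA-PK (0.1 μg/mL final) with 20 μM ATP for 1 h at 25 °C. Compounds tested over 10 3-fold doses from 100 nM top final. Phospho-p53 Ser15 detected by antibody, HRP and TMB, absorbance at 450 nm.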

The target of a further test is ATM (Homo sapiens (Human), UniProt Q13315). As to the kind of experiment: ATM in Cell Western Assay (pKAP1 in etoposide-treated MCF-7 cells). The format is cell-based. The following applies: pKAP1 in etoposide-treated MCF-7 cells. A digest of the protocol:
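Cells received compounds in a 10-dose, 3-fold series from a 1 μM final top concentration, then 100 μM etoposide, for 1 hr at 37° C. They were then fixed with paraformaldehyde and permeabilized with 0.1% Triton X-100. After immunostaining, plates were scanned on an infrared imager.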

Sequence of ATM (Q13315 whole entry): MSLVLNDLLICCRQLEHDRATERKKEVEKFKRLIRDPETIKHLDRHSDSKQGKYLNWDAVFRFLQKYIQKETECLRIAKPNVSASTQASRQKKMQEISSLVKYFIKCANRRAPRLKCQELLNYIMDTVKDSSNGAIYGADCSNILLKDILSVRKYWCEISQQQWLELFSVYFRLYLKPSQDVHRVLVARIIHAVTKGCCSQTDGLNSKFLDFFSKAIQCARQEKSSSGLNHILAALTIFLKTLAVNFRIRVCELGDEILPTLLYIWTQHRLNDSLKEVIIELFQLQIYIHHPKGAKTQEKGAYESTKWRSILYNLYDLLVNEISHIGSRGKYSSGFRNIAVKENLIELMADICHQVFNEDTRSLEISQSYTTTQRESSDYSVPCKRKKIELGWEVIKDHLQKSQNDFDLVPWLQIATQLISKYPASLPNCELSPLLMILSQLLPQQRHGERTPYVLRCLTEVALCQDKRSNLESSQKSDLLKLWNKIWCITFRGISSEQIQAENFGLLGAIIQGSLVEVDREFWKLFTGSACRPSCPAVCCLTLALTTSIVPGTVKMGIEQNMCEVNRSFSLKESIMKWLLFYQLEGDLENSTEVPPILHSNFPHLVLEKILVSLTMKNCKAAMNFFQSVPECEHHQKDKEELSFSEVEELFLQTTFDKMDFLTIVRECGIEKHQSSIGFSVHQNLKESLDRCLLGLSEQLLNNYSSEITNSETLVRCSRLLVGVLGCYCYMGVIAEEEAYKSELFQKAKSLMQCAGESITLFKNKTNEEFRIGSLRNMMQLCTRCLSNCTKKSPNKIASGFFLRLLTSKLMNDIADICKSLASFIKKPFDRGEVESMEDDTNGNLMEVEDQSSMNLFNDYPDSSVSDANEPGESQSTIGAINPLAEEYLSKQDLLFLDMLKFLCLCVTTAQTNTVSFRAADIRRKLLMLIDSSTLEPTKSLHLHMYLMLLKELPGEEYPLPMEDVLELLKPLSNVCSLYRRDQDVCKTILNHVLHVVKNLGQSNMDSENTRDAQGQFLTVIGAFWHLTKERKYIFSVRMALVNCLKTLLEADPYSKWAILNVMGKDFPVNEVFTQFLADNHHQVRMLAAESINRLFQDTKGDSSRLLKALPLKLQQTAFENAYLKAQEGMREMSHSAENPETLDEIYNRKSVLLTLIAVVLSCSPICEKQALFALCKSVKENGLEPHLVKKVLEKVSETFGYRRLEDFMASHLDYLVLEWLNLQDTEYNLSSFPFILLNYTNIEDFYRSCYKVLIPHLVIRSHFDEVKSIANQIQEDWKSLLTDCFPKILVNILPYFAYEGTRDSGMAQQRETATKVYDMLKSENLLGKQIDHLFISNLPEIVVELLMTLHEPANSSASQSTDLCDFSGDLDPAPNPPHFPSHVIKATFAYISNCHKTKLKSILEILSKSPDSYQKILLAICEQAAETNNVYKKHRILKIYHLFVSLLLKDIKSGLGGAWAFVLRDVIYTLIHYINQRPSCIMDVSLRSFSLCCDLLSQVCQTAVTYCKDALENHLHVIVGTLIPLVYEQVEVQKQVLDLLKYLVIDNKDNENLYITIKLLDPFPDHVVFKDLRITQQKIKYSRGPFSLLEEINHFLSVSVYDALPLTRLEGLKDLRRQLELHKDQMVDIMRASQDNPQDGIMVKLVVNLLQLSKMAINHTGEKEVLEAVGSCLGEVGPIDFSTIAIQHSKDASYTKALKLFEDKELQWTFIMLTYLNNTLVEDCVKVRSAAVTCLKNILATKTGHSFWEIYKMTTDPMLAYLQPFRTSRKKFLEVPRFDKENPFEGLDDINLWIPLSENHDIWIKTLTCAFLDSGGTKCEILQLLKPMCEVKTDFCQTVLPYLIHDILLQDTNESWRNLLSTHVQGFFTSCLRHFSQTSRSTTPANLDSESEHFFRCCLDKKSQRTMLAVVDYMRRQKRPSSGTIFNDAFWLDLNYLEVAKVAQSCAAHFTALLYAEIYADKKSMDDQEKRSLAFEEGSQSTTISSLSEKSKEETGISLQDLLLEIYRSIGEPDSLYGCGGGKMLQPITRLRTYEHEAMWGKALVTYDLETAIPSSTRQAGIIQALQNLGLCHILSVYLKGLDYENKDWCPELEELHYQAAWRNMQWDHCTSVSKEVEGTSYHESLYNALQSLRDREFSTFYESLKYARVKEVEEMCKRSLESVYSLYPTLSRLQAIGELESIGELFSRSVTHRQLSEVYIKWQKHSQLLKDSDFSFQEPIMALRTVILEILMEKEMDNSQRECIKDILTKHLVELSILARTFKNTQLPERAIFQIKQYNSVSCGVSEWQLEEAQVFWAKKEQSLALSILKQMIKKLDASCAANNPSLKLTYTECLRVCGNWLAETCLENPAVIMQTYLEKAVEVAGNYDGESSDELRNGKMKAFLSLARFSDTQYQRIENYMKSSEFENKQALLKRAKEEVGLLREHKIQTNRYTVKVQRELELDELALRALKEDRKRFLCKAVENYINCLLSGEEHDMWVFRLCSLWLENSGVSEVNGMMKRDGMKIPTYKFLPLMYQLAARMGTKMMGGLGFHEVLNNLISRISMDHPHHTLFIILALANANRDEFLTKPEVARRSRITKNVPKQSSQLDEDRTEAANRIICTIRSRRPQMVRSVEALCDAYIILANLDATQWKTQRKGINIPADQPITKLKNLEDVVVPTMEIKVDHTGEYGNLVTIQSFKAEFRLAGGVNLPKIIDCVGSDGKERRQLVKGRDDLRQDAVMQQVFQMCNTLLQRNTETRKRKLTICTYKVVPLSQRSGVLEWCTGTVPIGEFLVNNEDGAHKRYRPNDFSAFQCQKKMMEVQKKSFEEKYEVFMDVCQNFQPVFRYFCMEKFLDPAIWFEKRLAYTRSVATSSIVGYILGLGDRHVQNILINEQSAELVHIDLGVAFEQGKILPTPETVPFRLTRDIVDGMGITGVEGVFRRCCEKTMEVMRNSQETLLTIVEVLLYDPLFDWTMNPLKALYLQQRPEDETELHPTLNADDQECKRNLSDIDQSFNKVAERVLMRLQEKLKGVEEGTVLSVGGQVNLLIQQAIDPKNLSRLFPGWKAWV

The IC50 is the concentration that gives 50% inhibition. Turning to `CC(C)NCCOc1ncc(-c2cc3c(cc2F)ncc2c3[C@]3(C[C@@H](c4ccc(Cl)cc4)C3)C(=O)N2C)cc1NS(C)(=O)=O` [Example 417, trans-N-(5-(3-(4-Chlorophenyl)-7′ fluoro-3′-methyl-2′-oxo-2′,3′-dihydrospiro[cyclobutane-1,1′-pyrrolo[2,3-c]quinolin]-8′-yl)-2-(2-(isopropylamino)ethoxy)pyridin-3-yl)methanesulfonamide], the results for the IC50 on DNA-PK and against ATM were 1 to 100 nM and > 100 nM, respectively.
In the same order, the values of `CC(C)NCCOc1ncc(-c2cc3c(cc2F)ncc2c3[C@]3(C[C@H](c4cccc(Cl)c4)C3)C(=O)N2C)cc1NS(C)(=O)=O` [Example 418, cis-N-(5-(3-(3-Chlorophenyl)-7′-fluoro-3′-methyl-2′-oxo-2′,3′-dihydrospiro[cyclobutane-1,1′-pyrrolo[2,3-c]quinolin]-8′-yl)-2-(2-(isopropylamino)ethoxy)pyridin-3-yl)methanesulfonamide] are 1 to 100 nM and 1 to 100 nM.
In the same order, the values of `CC(C)NCCOc1ncc(-c2cc3c(cc2F)ncc2c3[C@]3(C[C@@H](c4cccc(Cl)c4)C3)C(=O)N2C)cc1NS(C)(=O)=O` [Example 419, trans-N-(5-(3-(3-Chlorophenyl)-7′-fluoro-3′-methyl-2′-oxo-2′,3′-dihydrospiro[cyclobutane-1,1′-pyrrolo[2,3-c]quinolin]-8′-yl)-2-(2-(isopropylamino)ethoxy)pyridin-3-yl)methanesulfonamide] are 1 to 100 nM and > 100 nM.
For the compound `COc1ccc([C@H]2C[C@]3(C2)C(=O)N(C)c2cnc4cc(F)c(-c5cnc(OCCNC(C)C)c(NS(C)(=O)=O)c5)cc4c23)cc1` [Example 420, cis-N-(5-(7′-Fluoro-3-(4-methoxyphenyl)-3-methyl-2′-oxo-2′,3′-dihydrospiro[cyclobulane-1,1′-pyrrolo[2,3-c]quinolin]-8′-yl)-2-(2-(isopropylamino)ethoxy)pyridin-3-yl)methanesulfonamide hydrochloride], the IC50 against DNA-PK and against ATM was 1 to 100 nM in each case.
Regarding `COc1ccc([C@H]2C[C@@]3(C2)C(=O)N(C)c2cnc4cc(F)c(-c5cnc(OCCNC(C)C)c(NS(C)(=O)=O)c5)cc4c23)cc1` [Example 421, hydrochloride], the IC50 against DNA-PK was 1 to 100 nM; against ATM, > 100 nM.
For `CC(C)NCCOc1ncc(-c2cc3c(cc2F)ncc2c3[C@]3(C[C@@H](c4ccc(F)cc4)C3)C(=O)N2C)cc1NS(C)(=O)=O` [Example 423, trans-N-(5-(7′-Fluoro-3-(4-fluorophenyl)-3′-methyl-2′-oxo-2′,3′-dihydrospiro[cyclobutane-1,1′-pyrrolo[2,3-c]quinolin]-8′-yl)-2-(2-(isopropylamino)ethoxy)pyridin-3-yl)methanesulfonamide], the IC50 against DNA-PK and at ATM was 1 to 100 nM in each case.
As to `CC(C)NCCOc1ncc(-c2cc3c(cc2F)ncc2c3[C@]3(C[C@H](c4cccc(F)c4)C3)C(=O)N2C)cc1NS(C)(=O)=O` [Example 424, cis-N-(5-(7′-Fluoro-3-(3-fluorophenyl)-3′-methyl-2′-oxo-2′,3′-dihydrospiro[cyclobutane-1,1′-pyrrolo[2,3-c]quinolin]-8′-yl)-2-(2-(isopropylamino)ethoxy)pyridin-3-yl)methanesulfonamide], the IC50 against DNA-PK and at ATM was 1 to 100 nM throughout.
With `CC(C)NCCOc1ncc(-c2cc3c(cc2F)ncc2c3[C@]3(C[C@@H](c4cccc(F)c4)C3)C(=O)N2C)cc1NS(C)(=O)=O` [Example 425, trans-N-(5-(7′-Fluoro-3-(3-fluorophenyl)-3′-methyl-2′-oxo-2′,3′-dihydrospiro[cyclobutane-1,1′-pyrrolo[2,3-c]quinolin]-8′-yl)-2-(2-(isopropylamino)ethoxy)pyridin-3-yl)methanesulfonamide], the IC50 against DNA-PK is 1 to 100 nM; on ATM it was > 100 nM.
`CC(C)NCCOc1ncc(-c2cc3c(cc2F)ncc2c3[C@]3(C[C@H](c4ccccc4F)C3)C(=O)N2C)cc1NS(C)(=O)=O` [Example 426, cis-N-(5-(7′-Fluoro-3-(2-fluorophenyl)-3′-methyl-2′-oxo-2′,3′-dihydrospiro[cyclobutane-1,1′-pyrrolo[2,3-c]quinolin]-8′-yl)-2-(2-(isopropylamino)ethoxy)pyridin-3-yl)methanesulfonamide]: the IC50 on DNA-PK and at ATM was 1 to 100 nM each time.
For `CC(C)NCCOc1ncc(-c2cc3c(cc2F)ncc2c3[C@]3(C[C@@H](c4ccccc4F)C3)C(=O)N2C)cc1NS(C)(=O)=O` [Example 427, trans-N-(5-(7′-Fluoro-3-(2-fluorophenyl)-3′-methyl-2′-oxo-2′,3′-dihydrospiro[cyclobutane-1,1′-pyrrolo[2,3-c]quinolin]-8′-yl)-2-(2-(isopropylamino)ethoxy)pyridin-3-yl)methanesulfonamide], the IC50 was 1 to 100 nM on DNA-PK and > 100 nM against ATM.
As to `COc1cccc([C@H]2C[C@]3(C2)C(=O)N(C)c2cnc4cc(F)c(-c5cnc(OCCNC(C)C)c(NS(C)(=O)=O)c5)cc4c23)n1` [Example 428, cis-N-(5-(7′-Fluoro-3-(6-methoxypyridin-2-yl)-3′-methyl-2′-oxo-2′,3′-dihydrospiro[cyclobutane-1,1′-pyrrolo[2,3-c]quinolin]-8′-yl)-2-(2-(isopropylamino)ethoxy)pyridin-3-yl)methanesulfonamide], the IC50 at DNA-PK and against ATM was 1 to 100 nM throughout.
For the compound `COc1cccc([C@H]2C[C@@]3(C2)C(=O)N(C)c2cnc4cc(F)c(-c5cnc(OCCNC(C)C)c(NS(C)(=O)=O)c5)cc4c23)n1` [Example 429, trans-N-(5-(7′-Fluor-3-(6-methoxypyridin-2-yl)-3′-methyl-2′-oxo-2′,3′-dihydrospiro[cyclobutane-1,1′-pyrrolo[2,3-c]quinolin]-8′-yl)-2-(2-(isopropylamino)ethoxy)pyridin-3-yl)methanesulfonamide], the IC50 on DNA-PK and against ATM was 1 to 100 nM in each case.
Consider `COc1ccc([C@H]2C[C@]3(C2)C(=O)N(C)c2cnc4cc(F)c(-c5cnc(OCCNC(C)C)c(NS(C)(=O)=O)c5)cc4c23)cn1` [Example 430], for which the IC50 at DNA-PK and on ATM was 1 to 100 nM each time.
As to `COc1ccc([C@H]2C[C@@]3(C2)C(=O)N(C)c2cnc4cc(F)c(-c5cnc(OCCNC(C)C)c(NS(C)(=O)=O)c5)cc4c23)cn1` [Example 431, trans-N-(5-(7′-Fluoro-3-(6-methoxypyridin-3-yl)-3′-methyl-2′-oxo-2′,3′-dihydrospiro[cyclobutane-1,1′-pyrrolo[2,3-c]quinolin]-8′-yl)-2-(2-(isopropylamino)ethoxy)pyridin-3-yl)methanesulfonamide], the IC50 at DNA-PK and on ATM was > 100 nM each time.
On to `COc1cc([C@H]2C[C@]3(C2)C(=O)N(C)c2cnc4cc(F)c(-c5cnc(OCCNC(C)C)c(NS(C)(=O)=O)c5)cc4c23)ccn1` [Example 432, cis-N-(5-(7′-Fluoro-3-(2-methoxypyridin-4-yl)-3′-methyl-2′-oxo-2′,3′-dihydrospiro[cyclobutane-1,1′-pyrrolo[2,3-c]quinolin]-8′-yl)-2-(2-(isopropylamino)ethoxy)pyridin-3-yl)methanesulfonamide], for which the IC50 at DNA-PK and against ATM was 1 to 100 nM each time.
